The target of the experiment is T1, glucocorticoid receptor (Homo sapiens, UniProt P04150).
T1 construct: expressed in transfected cells
T1 sequence (P04150 524-758 limits assumed): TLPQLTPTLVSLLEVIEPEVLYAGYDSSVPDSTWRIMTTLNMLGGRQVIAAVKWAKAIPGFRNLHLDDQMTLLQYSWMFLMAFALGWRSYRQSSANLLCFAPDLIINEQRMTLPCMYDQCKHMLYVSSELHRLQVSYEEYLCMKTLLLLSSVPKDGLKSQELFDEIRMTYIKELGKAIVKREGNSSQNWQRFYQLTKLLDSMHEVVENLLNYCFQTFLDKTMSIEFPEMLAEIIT
The experiment is described as follows: Agonistic mode of action on the glucocorticoid receptor (CHO-Gal4/GR luciferase reporter cell line). The experiment is classed as cell-based. Conditions: range class observed in the agonistic assay or the antagonistic assay (CHO-Gal4/GR reporter cells); table does not say which mode applies per example. In a few lines:
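Agonism measured as dose-dependent luciferase luminescence (FLIPR Tetra) from a GAL4-UAS reporter driven by GAL4 DBD fused to GR ligand-binding domain in stable CHO cells. Eight half-log doses, 10 μM to 0.003 μM final in 0.5% DMSO, quadruplicate, on cells seeded 24 h earlier at 5000/well; EC50 derived.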

SMILES strings stand for the structures.

Turning to `Cc1nnc2n1-c1c(cc(F)c(-c3c(F)ccc4c3ccn4S(C)(=O)=O)c1F)NC2(C)C` [Example 224, 7,9-Difluoro-8-(5-fluoro-1-methylsulfonyl-1H-indol-4-yl)-1,4,4-trimethyl-5H-[1,2,4]triazolo[4,3-a]quinoxaline], the IC50 or EC50 (agonist or antagonist mode not specified) was 0.1 to 1 µM.

In the case of `Cc1c(-c2cc(F)cc3c2ccn3C)c(F)cc2c1-n1c(C)nnc1C(C)(C)N2` [Example 518, 7-Fluoro-8-(6-fluoro-1-methyl-1H-indol-4-yl)-1,4,4,9-tetramethyl-5H-[1,2,4]triazolo[4,3-a]quinoxaline], the IC50 or EC50 (agonist or antagonist mode not specified) was less than 0.1 µM.

For `Cc1c(-c2cc(F)cc3c2ccn3S(C)(=O)=O)c(Cl)cc2c1-n1c(C)nnc1C(C)(C)N2` [Example 333, 7-Chloro-8-(6-fluoro-1-methylsulfonyl-1H-indol-4-yl)-1,4,4,9-tetramethyl-5H-[1,2,4] triazolo[4,3-a]quinoxaline], the IC50 or EC50 (agonist or antagonist mode not specified) is less than 0.1 µM.

`Cc1c[nH]c2c(-c3c(F)cc4c(c3F)-n3c(Cc5cccnc5)nnc3C(C)(C)N4)cc(F)cc12` [Example 73, 7,9-Difluoro-8-(5-fluoro-3-methyl-1H-indol-7-yl)-4,4-dimethyl-1-(pyridin-3-yl-methyl)-5H-[1,2,4]triazolo[4,3-a]quinoxaline]: the IC50 or EC50 (agonist or antagonist mode not specified) lay in the range of 0.1 to 1 µM. Regarding `Cc1c(-c2cc(F)cc3c(C)c[nH]c23)c(OC(F)(F)F)cc2c1-n1c(C)nnc1C(C)(C)N2` [Example 458, 8-(5-Fluoro-3-methyl-1H-indol-7-yl)-1,4,4,9-tetramethyl-7-(trifluoromethyloxy)-5H-[1,2,4]triazolo[4,3-a]quinoxaline], the IC50 or EC50 (agonist or antagonist mode not specified) lay within 0.1 to 1 µM.

For the compound `Cc1nnc2n1-c1c(cc(F)c(-c3cccc4c3ccn4S(C)(=O)=O)c1C1CC1)NC2(C)C` [Example 462, 9-Cyclopropyl-7-fluoro-1,4,4-trimethyl-8-(1-methylsulfonyl-1H-indol-4-yl)-5H-[1,2,4]triazolo [4,3-a]quinoxaline], the IC50 or EC50 (agonist or antagonist mode not specified) was less than 0.1 µM. Under `Cc1c[nH]c2c(-c3c(Cl)cc4c(c3F)-n3c(C)nnc3C(C)(C)N4)cccc12` [Example 272, 7-Chloro-9-fluoro-1,4,4-trimethyl-8-(3-methyl-1H-indol-7-yl)-5H-[1,2,4]triazolo[4,3-a]quinoxaline] stands 0.1 to 1 µM; under `COc1cc2c(c(C)c1-c1cc(F)cc3c(C)c[nH]c13)-n1c(C)nnc1C(C)(C)N2` [Example 345, 8-(5-Fluoro-3-methyl-1H-indol-7-yl)-7-methoxy-1,4,4,9-tetramethyl-5H-[1,2,4]triazolo[4,3-a]quinoxaline], 0.1 to 1 µM.

In turn, `CC#Cc1c[nH]c2c(-c3c(F)cc4c(c3C)-n3c(C(C)O)nnc3C(C)(C)N4)cc(F)cc12` (centres unmarked) [Example 78] showed an IC50 or EC50 (agonist or antagonist mode not specified) of 1 to 15 µM. Next, `Cc1c[nH]c2c(-c3c(F)cc4c(c3C(F)F)-n3c(C)nnc3C(C)(C)N4)cc(F)cc12` [Example 302, 9-(Difluoro-methyl)-7-fluoro-8-(5-fluoro-3-methyl-1H-indol-7-yl)-1,4,4-trimethyl-5H-[1,2,4]triazolo[4,3-a]quinoxaline]: less than 0.1 µM; `Cc1c(-c2cc(F)cc3c2ccn3S(C)(=O)=O)c(OC(F)(F)F)cc2c1-n1c(C)nnc1C(C)(C)N2` [Example 403, 8-(6-Fluoro-1-methylsulfonyl-1H-indol-4-yl)-1,4,4,9-tetramethyl-7-(trifluoromethyloxy)-5H-[1,2,4]triazolo[4,3-a]quinoxaline]: less than 0.1 µM.

Compound `Cc1nnc2n1-c1c(cc(F)c(-c3cccc4c3cc(C(F)(F)F)n4C3CC3)c1F)NC2(C)C` [Example 312, 8-[1-Cyclopropyl-2-(trifluoromethyl)-1H-indol-4-yl]-7,9-difluoro-1,4,4-trimethyl-5H-[1,2,4]triazolo[4,3-a]quinoxaline] registered an IC50 or EC50 (agonist or antagonist mode not specified) of 0.1 to 1 µM. In turn, `Cc1cc2c(c(C)c1-c1cc(F)cc3c1ccn3S(C)(=O)=O)-n1c(C)nnc1C(C)(C)N2` [Example 328, 8-(6-Fluoro-1-methylsulfonyl-1H-indol-4-yl)-1,4,4,7,9-pentamethyl-5H-[1,2,4]triazolo[4,3-a]quinoxaline] returned an IC50 or EC50 (agonist or antagonist mode not specified) of 0.1 to 1 µM.

The compound `Cc1c[nH]c2c(-c3ccc4c(c3C(F)F)-n3c(C)nnc3C(C)(C)N4)cc(F)cc12` [Example 527, 9-(Difluoro-methyl)-8-(5-fluoro-3-methyl-1H-indol-7-yl)-1,4,4-trimethyl-5H-[1,2,4]triazolo [4,3-a]quinoxaline] returned an IC50 or EC50 (agonist or antagonist mode not specified) of less than 0.1 µM.

For `COc1cc(-c2c(F)cc3c(c2C(F)(F)F)-n2c(C)nnc2C(C)(C)N3)c2ccn(S(C)(=O)=O)c2c1` [Example 536, 7-Fluoro-8-(6-methoxy-1-methylsulfonyl-1H-indol-4-yl)-1,4,4-trimethyl-9-(trifluoro-methyl)-5H-[1,2,4]triazolo [4,3-a]quinoxaline], the IC50 or EC50 (agonist or antagonist mode not specified) fell in the range of 0.1 to 1 µM. Next, `COc1cc2c(c(C(F)(F)F)c1-c1cc(F)cc3c1cnn3S(C)(=O)=O)-n1c(C)nnc1C(C)(C)N2` [Example 376, 8-(6-Fluoro-1-methylsulfonyl-1H-indazol-4-yl)-7-methoxy-1,4,4-trimethyl-9-(trifluoromethyl)-5H-[1,2,4]triazolo[4,3-a]quinoxaline]: 1 to 15 µM. Next, `Cc1c(-c2cc(C(F)(F)F)cc3[nH]ccc23)c(Cl)cc2c1-n1c(C)nnc1C(C)(C)N2` [Example 475, 7-Chloro-1,4,4,9-tetramethyl-8-[6-(trifluoromethyl)-1H-indol-4-yl]-5H-[1,2,4]triazolo[4,3-a]quinoxaline]: 0.1 to 1 µM; `Cc1c(-c2cccc3c2cnn3S(C)(=O)=O)c(Cl)cc2c1-n1c(C)nnc1C(C)(C)N2` [Example 386, 7-Chloro-1,4,4,9-tetramethyl-8-(1-methylsulfonyl-1H-indazol-4-yl)-5H-[1,2,4]triazolo[4,3-a] quinoxaline]: 1 to 15 µM; `COc1c(-c2cc(F)cc3c2ccn3CCO)c(F)cc2c1-n1c(C)nnc1C(C)(C)N2` [Example 380, 2-[6-Fluoro-4-(7-fluoro-9-methoxy-1,4,4-trimethyl-5H-[1,2,4]triazolo [4,3-a]quinoxalin-8-yl)-1H-indol-1-yl]-ethanol]: 1 to 15 µM. On to `Cc1nnc2n1-c1c(cc(F)c(-c3cccc4[nH]ccc34)c1F)NC2(C)C` [Example 445, 7,9-Difluoro-8-(1H-indol-4-yl)-1,4,4-trimethyl-5H-[1,2,4] triazolo[4,3-a]quinoxaline], for which the IC50 or EC50 (agonist or antagonist mode not specified) was less than 0.1 µM. Under `COc1c(-c2cccc3c2ccn3CC(F)F)c(F)cc2c1-n1c(C)nnc1C(C)(C)N2` [Example 397, 8-[1-(2,2-Difluoro-ethyl)-1H-indol-4-yl]-7-fluoro-9-methoxy-1,4,4-trimethyl-5H-[1,2,4]triazolo[4,3-a]quinoxaline] stands 0.1 to 1 µM; under `COCCn1ccc2c(-c3c(OC)cc4c(c3F)-n3c(C)nnc3C(C)(C)N4)cc(F)cc21` [Example 353, 9-Fluoro-8-[6-fluoro-1-(2-methoxy-ethyl)-1H-indol-4-yl]-7-methoxy-1,4,4-trimethyl-5H-[1,2,4]triazolo [4,3-a]quinoxaline], 1 to 15 µM.

For the compound `Cc1c(-c2cc(Cl)cc3[nH]ccc23)c(F)cc2c1-n1c(C)nnc1C(C)(C)N2` [Example 513, 8-(6-Chloro-1H-indol-4-yl)-7-fluoro-1,4,4,9-tetramethyl-5H-[1,2,4]triazolo[4,3-a]quinoxaline], the IC50 or EC50 (agonist or antagonist mode not specified) was 0.1 to 1 µM. Next, `Cc1nnc2n1-c1c(cc(F)c(-c3cc(F)cc4[nH]c(C#N)cc34)c1F)NC2(C)C` [Example 6, 4-(7,9-difluoro-1,4,4-trimethyl-4,5-dihydro-[1,2,4]triazolo[4,3-a]quinoxalin-8-yl)-6-fluoro-1H-indole-2-carbonitrile]: 1 to 15 µM. As to `Cc1cc2c(c(F)c1-c1cc(F)cc3c(C)c[nH]c13)-n1c(C)nnc1C(C)(C)N2` [Example 364, 9-Fluoro-8-(5-fluoro-3-methyl-1H-indol-7-yl)-1,4,4,7-tetramethyl-5H-[1,2,4]triazolo[4,3-a]quinoxaline], the IC50 or EC50 (agonist or antagonist mode not specified) lay within 0.1 to 1 µM. Next, `Cc1c(-c2cccc3c(C)n[nH]c23)c(Cl)cc2c1-n1c(C)nnc1C(C)(C)N2` [Example 368, 7-Chloro-1,4,4,9-tetramethyl-8-(3-methyl-1H-indazol-7-yl)-5H-[1,2,4]triazolo[4,3-a]quinoxaline]: 0.1 to 1 µM; `Cc1nnc2n1-c1c(cc(F)c(-c3cccc4c3cnn4S(=O)(=O)CC3CC3)c1F)NC2(C)C` [Example 239, 8-[1-(Cyclopropyl-methylsulfonyl)-1H-indazol-4-yl]-7,9-difluoro-1,4,4-trimethyl-5H-[1,2,4]triazolo[4,3-a]quinoxaline]: 0.1 to 1 µM. Under `Cc1nnc2n1-c1c(cc(F)c(-c3cccc4c3cnn4C3CC3)c1F)NC2(C)C` [Example 243, 8-(1-Cyclopropyl-1H-indazol-4-yl)-7,9-difluoro-1,4,4-trimethyl-5H-[1,2,4]triazolo[4,3-a]quinoxaline] stands 0.1 to 1 µM. Take `Cc1c(-c2cccc3c(C4CCOC4)c[nH]c23)c(F)cc2c1-n1c(C)nnc1C(C)(C)N2` (centres unmarked) [Example 42, 7-fluoro-1,4,4,9-tetramethyl-8-(3-(tetrahydrofuran-3-yl)-1H-indol-7-yl)-4,5-dihydro-[1,2,4]triazolo[4,3-a]quinoxaline]: the IC50 or EC50 (agonist or antagonist mode not specified) was less than 0.1 µM.

For the origin of these results see patent US12110293B2, “Substituted triazolo quinoxaline derivatives” (GRÜNENTHAL GMBH, priority 2018, dated 2024).
